Assay results from patent publication US10035777B2, “Heterocyclic kinase inhibitors” (priority 2014, dated 2018).

Target: GST-Xa-hAAK1 (Homo sapiens (Human), UniProt Q2M2I8)
Test: biochemical
Conditions: not given
Method: The assays were performed in U-bottom 384-well plates. […] The reactions were initiated by the combination of bacterially expressed, GST-Xa-hAAK1 with substrates and test compounds. The reactions were incubated at room temperature for 3 hours and terminated by adding 60 μl of 35 mM EDTA buffer to each sample. The reactions were analyzed on the Caliper LabChip 3000 (Caliper, Hopkinton, Mass.) by electrophoretic separation of the fluorescent substrate and phosphorylated product. […] Compounds were dissolved at 10 mM in dimethylsulfoxide (DMSO) and evaluated at eleven concentrations. IC50 values were derived by non-linear regression analysis.

Chain of GST-Xa-hAAK1 (Q2M2I8 whole entry): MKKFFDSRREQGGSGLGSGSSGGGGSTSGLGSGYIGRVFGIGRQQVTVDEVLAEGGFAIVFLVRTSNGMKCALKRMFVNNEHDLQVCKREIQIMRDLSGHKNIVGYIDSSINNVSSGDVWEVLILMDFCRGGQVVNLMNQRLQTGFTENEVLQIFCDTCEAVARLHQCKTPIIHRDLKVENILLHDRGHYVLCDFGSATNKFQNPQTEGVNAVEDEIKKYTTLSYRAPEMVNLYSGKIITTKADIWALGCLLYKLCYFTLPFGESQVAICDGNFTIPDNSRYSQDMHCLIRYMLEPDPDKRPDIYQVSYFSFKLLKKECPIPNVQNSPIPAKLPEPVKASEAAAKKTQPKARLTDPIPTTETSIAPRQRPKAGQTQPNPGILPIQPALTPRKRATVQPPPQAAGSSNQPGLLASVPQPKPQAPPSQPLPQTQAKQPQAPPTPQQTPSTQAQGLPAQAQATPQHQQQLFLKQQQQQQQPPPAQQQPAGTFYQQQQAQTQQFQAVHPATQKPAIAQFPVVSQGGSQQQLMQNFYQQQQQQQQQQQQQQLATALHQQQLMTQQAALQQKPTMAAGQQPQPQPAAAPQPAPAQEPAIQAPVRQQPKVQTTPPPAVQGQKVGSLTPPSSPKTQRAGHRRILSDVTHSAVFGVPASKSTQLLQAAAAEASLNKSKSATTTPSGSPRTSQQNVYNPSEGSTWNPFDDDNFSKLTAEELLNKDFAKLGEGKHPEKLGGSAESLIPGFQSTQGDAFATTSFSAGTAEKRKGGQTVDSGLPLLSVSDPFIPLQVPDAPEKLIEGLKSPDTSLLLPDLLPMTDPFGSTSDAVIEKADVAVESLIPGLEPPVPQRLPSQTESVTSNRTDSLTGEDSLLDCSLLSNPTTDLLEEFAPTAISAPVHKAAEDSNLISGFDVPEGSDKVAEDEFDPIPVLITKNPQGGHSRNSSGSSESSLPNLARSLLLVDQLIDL

| Compound | IC50 [nM] |
| --- | --- |
| CC(C)C[C@H](N)c1nc2cc(-c3ccncc3)ccc2s1 [Example 97, (S)-3-methyl-1-(5-(pyridin-4-yl)benzo[d]thiazol-2-yl) butan-1-amine] | 116 |
| CC(C)CC(N)c1nc2ccc(-c3ccncc3)cc2s1 (stereo not shown) [Example 98, 3-methyl-1-(6-(pyridin-4-yl)benzo[d]thiazol-2-yl)butan-1-amine] | 44 |
| CC(C)CCc1nc2ccc(-c3cnco3)cc2o1 [Example 100, 2-isopentyl-6-(oxazol-5-yl)benzo[d]oxazole] | 1020 |

Same assay, conditions: ATP 22 μM; GST-Xa-hAAK1 3.5 nM; room temperature for 3 hours; Caliper LabChip 3000; read-out: AAK1 IC50

| Compound | IC50 [nM] |
| --- | --- |
| CC(C)CCc1nc2cc(-c3ccncc3)ccc2o1 [Example 89, 2-isopentyl-5-(pyridin-4-yl)benzo[d]oxazole] | 327 |
| c1cc(-c2ccc3oc(CC4CCCC4)nc3c2)ccn1 [Example 90, 2-(cyclopentylmethyl)-5-(pyridin-4-yl)benzo[d]oxazole] | 818 |
| NC(CC(C(F)(F)F)C(F)(F)F)c1nc2cc(-c3ccncc3)ccc2o1 (stereo not shown) [Example 91, 4,4,4-trifluoro-1-(5-(pyridin-4-yl)benzo[d]oxazol-2-yl)-3-(trifluoromethyl)butan-1-amine] | 391 |
| c1cc(-c2ccc3oc(CCC4CCCC4)nc3c2)ccn1 [Example 92, 2-(2-cyclopentylethyl)-5-(pyridin-4-yl)benzo[d]oxazole] | 1700 |
| NC(CCC(F)(F)F)c1nc2cc(-c3ccncc3)ccc2o1 (stereo not shown) [Example 93, 4,4,4-trifluoro-1-(5-(pyridin-4-yl)benzo[d]oxazol-2-yl)butan-1-amine] | 136 |
| COc1cnccc1-c1ccc2oc(C(N)CC(C)C)nc2c1 (stereo not shown) [Example 94, 1-(5-(3-methoxypyridin-4-yl)benzo[d]oxazol-2-yl)-3-methylbutan-1-amine] | 294 |
| CC(C)CC(N)c1nc2cc(-c3ccncc3)ccc2s1 (stereo not shown) [Example 95, 3-methyl-1-(5-(pyridin-4-yl)benzo[d]thiazol-2-yl)butan-1-amine] | 100 |
| CC(C)C[C@@H](N)c1nc2cc(-c3ccncc3)ccc2s1 [Example 96, (R)-3-methyl-1-(5-(pyridin-4-yl)benzo[d]thiazol-2-yl)butan-1-amine] | 797 |
| c1cc(-c2ccc3[nH]c(CC4CCCC4)nc3c2)ccn1 [Example 99, 2-(cyclopentylmethyl)-5-(pyridin-4-yl)-1H-benzo[d]imidazole] | 105 |
| CN[C@H](CC(C)C)c1nc2ccc(-c3cnco3)cc2[nH]1 [Example 101, (R)-N,3-dimethyl-1-(6-(oxazol-5-yl)-1H-benzo[d]imidazol-2-yl) butan-1-amine] | 34 |
| COCCN[C@H](CC(C)C)c1nc2cc(-c3cnco3)ccc2[nH]1 [Example 102, (R)-N-(2-methoxyethyl)-3-methyl-1-(5-(oxazol-5-yl)-1H-benzo[d]imidazol-2-yl)butan-1-amine] | 680 |
| CC(C)CC(C)(N)c1nc2ccc(-c3cnco3)cc2[nH]1 (stereo not shown) [Example 103, 4-methyl-2-(6-(oxazol-5-yl)-1H-benzo[d]imidazol-2-yl)pentan-2-amine] | 158 |
| NC(CC(C(F)(F)F)C(F)(F)F)c1nc2ccc(-c3cnco3)cc2[nH]1 (stereo not shown) [Example 104, 4,4,4-trifluoro-1-(6-(oxazol-5-yl)-1H-benzo[d]imidazol-2-yl)-3-(trifluoromethyl)butan-1-amine] | 381 |
| NC(CCC(F)(F)F)c1nc2ccc(-c3cnco3)cc2[nH]1 (stereo not shown) [Example 105, 4,4,4-trifluoro-1-(6-(oxazol-5-yl)-1H-benzo[d]imidazol-2-yl)butan-1-amine] | 150 |
| CC(C)CCc1nc2ccc(-c3ccncc3)cc2[nH]1 [Example 106, 2-isopentyl-6-(pyridin-4-yl)-1H-benzo[d]imidazole] | 115 |
| CNC(CC(C)C)c1nc2cc(-c3cnco3)c(OC)cc2[nH]1 (stereo not shown) [Example 107, 1-(6-methoxy-5-(oxazol-5-yl)-1H-benzo[d]imidazol-2-yl)-N,3-dimethylbutan-1-amine] | 16 |
| COc1cc2[nH]c(C(C)(N)CC(C)C)nc2cc1-c1cnco1 (stereo not shown) [Example 108, 2-(6-methoxy-5-(oxazol-5-yl)-1H-benzo[d]imidazol-2-yl)-4-methylpentan-2-amine] | 60 |
| (R)-1-(5-(1H-pyrazolo[3, 4-b]pyridin-4-yl)-1H-benzo[d]imidazol-2-yl)-3-methylbutan-1-amine [Example 7] | 10 |

Same assay, conditions: read-out: AAK1 IC50

| Compound | IC50 [nM] |
| --- | --- |
| CN[C@H](CC(C)C)c1nc2cc(-c3ccnnc3)ccc2[nH]1 [Example 109, (R)-N,3-dimethyl-1-(5-(pyridazin-4-yl)-1H-benzo[d]imidazol-2-yl)butan-1-amine] | 428 |
